13 molecules from patent US20170226139A1, “CRYSTALLINE SALTS OF (Z)-O-OCTADEC-9-EN-1-YL O,O-DIHYDROGEN PHOSPHOROTHIOATE” (priority 2013, published 2017) can be followed below.

One may read the EC50 as the concentration at which the effect is half-maximal.

The nature of series [1]: Rx100 salt screening (solid formation, XRPD wet/dry, filterability, exposure to RH > 90%). The settings on record: for Filterability / Crystallinity / Polymorphic behavior: Rx100 salt formed with the named base; for Crystallinity / Polymorphic behavior: XRPD; for Solid upon evaporation (Y/N) / All solvents were evaporated to get a gel: stage 3, 1.05 eq, L-lysine 2.00 eq; for Solid upon evaporation (Y/N): 35 mg Rx100 free acid + base (label = base); for All solvents were evaporated to get a gel: label = base, nature/filterability of the solid; for XRPD, wet / ON PLATE: stage 2 round 2, Rx100 free acid + 1 eq base (label = base). The protocol: We designed a complex and unconventional screening regime to screen for Rx100 crystalline salts. […] The screening regime is described as follows.
Rx100.FA in the form of a viscous liquid and eighteen counter ions were used as starting materials. These counter ions are listed and numbered in Table 4. The numbers will be used for grouping the resulting solids. The screening was performed in three stages.
Stage one (1) included screening 11 counter ions: sodium hydroxide, ammonium hydroxide, ethylenediamine, diethylamine, tromethamine (Tris), hydroxyethyl morpholine, benzathine, dimethylamino ethanol, L-Arginine, L-Lysine, L-Histidine. […] In stage 1, we performed three rounds of experiment.
In the first round of experiment, four (4) solvent systems, i.e., isopropyl alcohol (IPA), diethyl ether (DEE), IPA:water (a mixture at a volume ratio of 95:5) and tetrahydrofuran (THF), were used. Thus in this first round of screening, 44 individual base-acid reactions were conducted in 44 vials.
First, Rx100.FA and each of the bases were mixed in a vial. […] In each of the 44 vials, 211.1 μL of the prepared liquid, which was equivalent to about 35 mg of Rx100.FA, was first dispensed. Then, one equivalent (molar) of each of the 11 bases was dispensed in its corresponding vial. For example, the base sodium hydroxide was added to vials 1, 12, 23 and 34. Similarly, L-histidine was added to vials 11, 22, 33 and 44. Observations were recorded upon addition of the bases in to Rx100.FA.
Second, the solvent in each mixture was depleted. All vials containing the mixtures of Rx100.FA and each of the bases were left under moderate vacuum and nitrogen bleed at room temperature overnight to evaporate the solvent. The vials were then kept under full vacuum for about an hour to make sure the solvents (ethanol and water) are evaporated. Observations on formation of solid upon evaporation were recorded.
Third, solvents were added in each vial to induce solid formation. In each vial, a stir bar and one of the four selected solvents (each 5 volumes with respect to the Rx100.FA) were added. The vials were then capped. IPA was added to the first set of 11 vials (1-11), DEE added to the second set of 11 vials (12-22), IPA:water added to the third set of 11 vials (23-33), and THF added to the fourth set of 11 vials (34-44). The vials were left at room temperature while stirring for at least 5 hours. Observations were recorded.
The first set of XRPD analyses were recorded as “wet” samples. The solids were dried under vacuum for 1 hour and at room temperature followed by XRPD as “dry” sample. The dry solid was then exposed to relative humidity of more than 90% overnight followed by XRPD analysis. For XRPD naming, a number and a letter were used. The number refers to the counter ion and the letter refers to the chronological discovered XRPD pattern of that particular salt.
In the second round of experiment of stage one, another four (4) solvent systems, i.e., methanol (MeOH), tert-Butyl methyl ether (tBME), ethyl acetate and toluene, were used in the same 44 vials as used in the first round experiment. The solvents in all 44 vials from the first round were evaporated to dryness under vacuum and nitrogen bleed. The 4 new solvents were then added into the vials. Methanol was added to the first set of 11 vials (1-11), tBME added to the second set of 11 vials (12-22), Ethyl acetate added to the third set of 11 vials (23-33), and Toluene added to the fourth set of 11 vials (34-44). The same procedure as in the first round of experiment was followed for these new solvents and samples were taken for XRPD analysis.
In the third round of experiment, effect of base equivalence was assessed. […] After addition of the extra base, the previous solvent was evaporated and new solvents added.

A short description of series [2]: Short term (24 hour) slurry tests, XRPD of wet and dried solids. It counts as physicochemical. The settings on record: 24 hour slurry; Water; one cell for 25° C. and 50° C.; starting form A. The protocol: Second, short term slurry tests were performed. Rx100.L-Lysine salt was slurried for a minimum of 24 hours in 15 different solvent systems at two different temperatures (25 and 50° C.) in an attempt to provide information for crystallization experiments and design of polymorph screening experiments. A 48 position Chemglass reaction block was used for heating and stirring the slurries which were in 2 mL HPLC vials. After the due time, vials were centrifuged and the wet solids were used for X-ray diffraction. […]

The test system of another series is Beagle dogs. Description: Single-dose subcutaneous toxicity in dogs. The series is classed as in vivo. Conditions: 1 mL/kg of a 6-mg/mL concentration of L-lysine; same animals. The text has this:
One group of one male and one female Beagle dogs received single escalating subcutaneous doses of Rx100.Lysine at 10 and 1 (female)/1.52 (male) mg/kg. […] Parameters evaluated included clinical signs, body weight, and gross pathology. The male and female dog survived until scheduled necropsy on Day 15. Administration of Rx100 had no effect on body weight or general health of the animals. Noteworthy clinical observations were confined to skin and behavior effects. Both animals scratched at the dose site, likely contributing to observations of redness at the dose site. Swelling and a thickened/raised area were also observed during the observation period. Clinical observations were sufficient to warrant the injection of diphenhydramine. […] Following injection of the L-lysine component of the formulation at an independent site, redness, scratching, or swelling was not seen.

The target in the next series is T1, Human LPA1 (Homo sapiens, UniProt Q92633).
T1 construct: expressed in transfected cells; host or cells: mouse embryonic fibroblasts (MEF)
Description: Calcium-mobilization assay (FURA-2), human LPA1 transfected cells. It counts as cell-based. The settings on record: mean; for EC50: read-out: EC50. The protocol:
(§1) We investigated structure-activity relationships across species, LPAR subtypes and between Rx100 and two known process impurities encountered in manufacture: Rx103 (‘E’ isomer) and Rx200 (oleyl phosphate and impurity, which can be an Rx100 degradant along with oleyl alcohol). Rx100, Rx103, Rx200 and native LPA were investigated at different human LPAR subtypes. In addition, the activity of these compounds was evaluated at LPA2 receptors from the rhesus, rat and mouse species. Human LPA1/2/3 subtypes were transfected into mouse embryonic fibroblasts (MEF) or rat hepatoma cells (RH7777)—both of which are normally non-responsive or null to LPA. Human LPA4 was transfected into Chinese hamster ovary (CHO) cells and LPA5 into the B103 neuroblastoma cell line. […] The B103 rat neuroblastoma cell line is endogenously nonresponsive to LPA but expresses heterologous LPA5 receptors well. […] LPAR activation elicits a G-protein-mediated transient rise in intracellular calcium level that is proportional to the concentration of LPA applied. The intracellular calcium level was quantified by the calcium-selective fluorescent indicator FURA-2 (e.g., increased intracellular calcium surge=increased fluorescence).

In series [3] the target is LPA2 receptors from the rhesus (Macaca mulatta, UniProt I2CXV3). Description: Calcium-mobilization assay (FURA-2), rhesus LPA2. Conditions: LPA2 DKO MEF, rhesus, mean. The series is classed as cell-based. The protocol: as §1
The next series concerns Control CHO. Description: Calcium-mobilization assay, untransfected Control CHO cells. Conditions: Control CHO (untransfected; endogenously expresses LPA1). The series is classed as cell-based, Chinese hamster. The method, then:
as §1

Series [4] concerns the target T2, LPA2 receptors from the mouse (Mus musculus, UniProt Q9JL06).
T2 construct: expressed in transfected cells
Description: Calcium-mobilization assay (FURA-2), mouse LPA2. The series is classed as cell-based. The settings on record: LPA2 DKO MEF, mouse, mean. The method, then: as §1

Series [5] addresses LPA2 receptors from the rat (Rattus norvegicus, UniProt A0ABK0LT65). Description: Calcium-mobilization assay (FURA-2), rat LPA2. It counts as cell-based. The settings on record: LPA2 DKO MEF, rat, mean. The method, then:
as §1

A short description of series [6]: Gravimetric moisture sorption analysis, with XRPD afterwards. Conditions: lot 1980-18-1; 95% RH; reversible. It counts as physicochemical. The protocol:
Moisture sorption analysis of the Rx100.L-Lysine salt was performed by equilibrating the sample at 25° C. and 50% RH to simulate ambient lab conditions. Humidity then decreased to 0% RH, increased from 0 to 95% RH, reduced from 95 to 0% RH, increased from 0 to 95% RH and then decreased from 95 to 50% RH.

The nature of series [7]: Characterization of scaled-up Rx100.L-Lysine salt (XRPD, DSC, TGA, 1H NMR, Karl Fischer, optical microscopy). The series is classed as physicochemical. The settings on record: scaled-up lot 1980-18-1. The protocol: The Rx100.L-Lysine salts were dried overnight under vacuum at 35° C. and then characterized by XRPD, DSC, TGA, ^1HNMR, Karl Fischer (KF), optical microscopy and moisture sorption assays.
Ratio of Rx-100 to L-Lysine in the salt was calculated based on the ^1HNMR integration ratio of set-A protons to set-B protons of the salt. Set-A protons are from Rx-100 part of the molecule and set-B protons are from L-Lysine part of the molecule. These two set of protons were selected because they are very well separated from rest of the protons in the ^1HNMR of the molecule. As shown in the molecular scheme in FIG. 39, set-A protons correspond to two olefinic protons of Rx100 and appear at […] in the ^1H NMR. In contrast, set-B protons correspond to methylene of lysine part and appear at […]. Comparison of ^1H NMR integration values for set-A and set-B protons indicates the ratio of Rx100 to lysine as 1:1.5.
The exhibition of birefringence observed by optical microscopy confirmed the crystallinity observed by XRPD

Like-named read-outs stand apart in the source and are kept apart here.

T1 sequence (Q92633 whole entry): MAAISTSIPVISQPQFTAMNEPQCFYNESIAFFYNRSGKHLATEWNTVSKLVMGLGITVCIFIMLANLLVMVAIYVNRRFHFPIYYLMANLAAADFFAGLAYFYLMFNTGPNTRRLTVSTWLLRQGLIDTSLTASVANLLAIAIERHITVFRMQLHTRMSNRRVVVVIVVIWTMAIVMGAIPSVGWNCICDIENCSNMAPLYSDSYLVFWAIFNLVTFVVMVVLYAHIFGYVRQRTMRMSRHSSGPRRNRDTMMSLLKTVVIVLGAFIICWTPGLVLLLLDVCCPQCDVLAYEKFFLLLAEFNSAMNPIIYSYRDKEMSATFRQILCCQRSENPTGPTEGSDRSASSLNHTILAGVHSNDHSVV
T2 sequence (Q9JL06 whole entry): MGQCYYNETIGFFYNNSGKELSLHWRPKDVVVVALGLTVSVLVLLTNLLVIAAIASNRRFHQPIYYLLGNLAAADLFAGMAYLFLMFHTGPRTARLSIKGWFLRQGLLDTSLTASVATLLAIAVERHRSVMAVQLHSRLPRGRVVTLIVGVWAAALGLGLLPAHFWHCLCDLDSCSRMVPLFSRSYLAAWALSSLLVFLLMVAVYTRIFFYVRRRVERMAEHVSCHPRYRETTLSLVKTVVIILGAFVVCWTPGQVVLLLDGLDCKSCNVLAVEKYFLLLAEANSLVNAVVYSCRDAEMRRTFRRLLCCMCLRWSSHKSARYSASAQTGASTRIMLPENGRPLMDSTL
LPA2 receptors from the rhesus, sequence (I2CXV3 1-351): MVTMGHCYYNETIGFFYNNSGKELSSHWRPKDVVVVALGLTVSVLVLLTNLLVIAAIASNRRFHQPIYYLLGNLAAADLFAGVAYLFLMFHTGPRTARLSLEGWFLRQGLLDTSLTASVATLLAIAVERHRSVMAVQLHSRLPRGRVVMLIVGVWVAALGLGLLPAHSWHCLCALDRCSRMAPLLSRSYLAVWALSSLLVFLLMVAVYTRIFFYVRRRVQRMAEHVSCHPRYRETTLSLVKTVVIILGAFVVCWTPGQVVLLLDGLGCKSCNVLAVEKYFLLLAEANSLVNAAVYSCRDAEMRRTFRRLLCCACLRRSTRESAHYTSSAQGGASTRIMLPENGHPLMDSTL
LPA2 receptors from the rat, sequence (A0ABK0LT65 1-348): as the sequence (Q9JL06 whole entry) above, with A153V, A189V, Y211F, M310T, S316H, R321H, A324S, Q327R, R341H counted along it

Consider Piperazine, for which, in [1], the Filterability entry was “yes”, the Crystallinity entry is listed as “yes”, the Polymorphic behavior result was “Multiple patterns on XRPD” and the “Solid upon evaporation (Y/N)” value is “Gel”. Further, the “All solvents were evaporated to get a gel” value (from here on “All solvents were evaporated”) in series [1] (solvent MeOH:Water [9:1]) is recorded as “Greasy”. The “All solvents were evaporated” value in series [1] (solvent MeOH) was “Greasy”.
As for Ca(OH)2, the “XRPD, wet” value in series [1] (Ethyl acetate) and in [1] (IPA:water (1:1)) was “Calcium” in each case.
For `CCCCCCCC/C=C\CCCCCCCCOP(O)(O)=S.NCCCC[C@H](N)C(=O)O` [Rx100. L-Lysine Salt], the “Resulting Form” value in series [2] is “Dissolved”.
For the molecule `CCCCCCCC/C=C\CCCCCCCCOP([O-])(O)=S.[Na+]` [Sodium], in [1], the Filterability result was “no”, the Crystallinity entry is recorded as “yes” and the Polymorphic behavior result was “Polymorphic on XRPD”.
As for `NC(CO)(CO)CO` [Tromethamine], in series [1], the Filterability entry was “no”, the Crystallinity entry was “no” and the Polymorphic behavior result was “Oily on XRPD”. Moreover, in [1] (stage 1, third round, 2.1 eq of base, listed as 4-16), the “RH > 90% overnight (XRPD pattern or state after exposure)” value is 5-A + Tris.
As to `[K+].[OH-]` [KOH], the “ON PLATE” value in series [1] (Ethyl acetate) is “Greasy”; in series [1] (IPA:water (1:1)) it was “Pasty”.
`NCCCC[C@H](N)C(=O)O` [L-lysine component, L-lysine]: the “tolerability of subcutaneous injection” value with Beagle dogs is on record as “well tolerated”.
As to “lysophosphatidic acid [LPA, reference compound]”, the “Emax (% of LPA)” value is reported as 100 % of LPA at Human LPA1 (LPA1 DKO MEF, human); 100 % of LPA on Human LPA1 (LPA1 RH7777, human); 100 % of LPA in [3]; 12% in the series on Control CHO; 100 % of LPA in [4]; 100 % of LPA in [5]. Moreover, the EC50 at Human LPA1 (LPA1 DKO MEF, human) stood at 0.354 µM; on Human LPA1 (LPA1 RH7777, human), 0.028 µM; in series [3] (read-out: EC50), 0.0013 µM; with Control CHO (read-out: EC50) it was 0.605 µM; in series [4] (read-out: EC50), 0.0044 µM; in [5] (read-out: EC50) it was 0.0017 µM.
On to `CCCCCCCC/C=C\CCCCCCCCOP(O)(O)=S.NCCN` [Rx100 Ethylenediamine salt], for which, in series [1], the “Stability at high humidity” value was “stable at high humidity”, the Filterability result is recorded as “filterable”, the Crystallinity entry is “showed crystallinity” and the Polymorphic behavior result is “Creamy/oily on XRPD”. Also, in series [1] (listed as Ethyldiamine), the Crystallinity entry is listed as “yes” and the Filterability result is on record as “yes”.
For the molecule `NCCCC[C@@H](N)C(=O)O` [D-Lysine], in series [1], the Filterability entry was “no”, the Crystallinity entry is reported as “yes”, the Polymorphic behavior result is reported as “Polymorphic on XRPD” and the “Solid upon evaporation (Y/N)” value is on record as “Gel”. Besides, the “All solvents were evaporated” value in series [1] (solvent MeOH:Water [9:1]) was “Greasy”. Besides, the “All solvents were evaporated” value in [1] (solvent MeOH) is recorded as “Greasy”.
With `CCCCCCCC/C=C\CCCCCCCCOP(O)(O)=S.NCCCC[C@H](N)C(=O)O` [Rx100. L-Lysine salt], the “Moisture Sorption [Wt. % at 95% RH]” value in series [6] is on record as 20.6 Wt. %. In series [7], the “KF [Wt % water]” value turned out to be 1.8 Wt % water, the “Optical Microscopy” value is listed as “Birefringent”, the “TGA [% Wt. loss]” value came out at 1.1 % Wt. loss and the “XRPD [Form]” value is listed as “Crystalline”.
Turning to L-Arginine, in series [1], the Filterability entry was “yes*”, the Crystallinity result is given as “yes” and the Polymorphic behavior entry is on record as “Greasy on XRPD”.
`[K+]` [Potassium]: in series [1], the Filterability entry is listed as “no”, the Crystallinity entry is recorded as “yes” and the Polymorphic behavior entry is recorded as “Polymorphic on XRPD”.
